Assay results: PubChem BioAssay (NCI)
Several values for one entry are separate records, joined by “and”; a condition that tells them apart may be missing. Identical values can stand only once.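 Step 1: Grow cells in 96-well plates. Step 2: Expose to compound for 48 hours at 5 concentrations. Step 3: Interpolate endpoints linearly; if unreached, use highest concentration. Abbreviation: GI50, concentration required for 50% inhibition of growth. TGI: total growth inhibition.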

Key:
Test in all cases: growth of human tumour cells (NCI), 48 h
NCI-H522 lung = system: NCI-H522 lung
TK-10 renal = system: TK-10 renal
SN12C renal = system: SN12C renal
RXF 393 renal = system: RXF 393 renal
MDA-N = system: MDA-N
HL-60(TB) leukemia = system: HL-60(TB) leukemia
BT-549 breast = system: BT-549 breast
OVCAR-8 ovarian = system: OVCAR-8 ovarian
SF-539 CNS = system: SF-539 CNS
RPMI-8226 leukemia = system: RPMI-8226 leukemia
PC-3 prostate = system: PC-3 prostate
UACC-257 melanoma = system: UACC-257 melanoma
HCT-116 colon = system: HCT-116 colon
MOLT-4 leukemia = system: MOLT-4 leukemia

Row | Compound | TGI (NCI-H522 lung) | TGI (TK-10 renal) | TGI (SN12C renal) | TGI (RXF 393 renal) | TGI (MDA-N) | TGI (HL-60(TB) leukemia) | TGI (BT-549 breast) | TGI (OVCAR-8 ovarian) | TGI (SF-539 CNS) | TGI (RPMI-8226 leukemia) | TGI (PC-3 prostate) | TGI (UACC-257 melanoma) | TGI (HCT-116 colon) | TGI (MOLT-4 leukemia) | GI50 (NCI-H522 lung) | GI50 (MOLT-4 leukemia) | GI50 (UACC-257 melanoma) | GI50 (HL-60(TB) leukemia) | GI50 (HCT-116 colon) | GI50 (SF-539 CNS)
1 | CC(=O)OC/C=C\Cn1nc(Br)c(=O)[nH]c1=O | 16.7 µM | 38.2 µM | 55.2 µM | 27.1 µM | 32 µM | 17.6 µM | 22.2 µM | 34.7 µM | 24.7 µM | 72.7 µM | 26 µM | 31.8 µM |  |  |  |  |  |  |  | 
2 | CNC(=O)SCC(N)C(=O)O (configuration not stated) | > 100 µM |  | > 100 µM | > 100 µM |  | > 100 µM |  | > 100 µM | > 100 µM | > 100 µM |  | > 100 µM | > 100 µM | > 100 µM |  |  |  |  |  | 
3 | CC(=O)NC(c1nc2cc(C)c(C)cc2[nH]1)c1nc2cc(C)c(C)cc2[nH]1 | 18 µM | 89.1 µM | 77.4 µM | 84.8 µM | 48.6 µM | > 100 µM | 61.6 µM | 47.5 µM | 30.5 µM | 46.4 µM | 94.7 µM | 71.1 µM | 53.7 µM | 26.6 µM |  |  |  |  |  | 
4 | CC1CCC2(C(=O)O)CCC3(C)C(=CCC4C5(C)CCC(O)C(C)(C)C5CCC43C)C2C1C (configuration not stated) | 17.8 µM and 28.9 µM | 43.9 µM | 18.9 µM and 36.1 µM | 16.4 µM and 38.3 µM | 28.2 µM | 19 µM and 6.49 µM | 40.5 µM | 21 µM and 35.2 µM | 22.5 µM and 35.6 µM | 24.3 µM and 31.5 µM | 29.3 µM | 13.7 µM and 32.6 µM | 17.9 µM and > 100 µM | 16.7 µM and 37.2 µM | 6.98 µM and 14.4 µM | 3.66 µM and 12.1 µM | 4.8 µM and 12.1 µM |  |  | 
5 | OC1CCOc2ccccc21 (configuration not stated) | > 100 µM | > 100 µM | > 100 µM | > 100 µM |  | > 100 µM |  | > 100 µM | > 100 µM | > 100 µM |  |  | > 100 µM | > 100 µM |  |  |  |  |  | 
6 | CCC(=O)c1ccc2[nH]c3c(C)c4c(=O)cc(C)[nH]c4c(C)c3c2c1 | > 100 µM | > 100 µM |  | > 100 µM | > 100 µM | > 100 µM | > 100 µM | > 100 µM | > 100 µM |  | > 100 µM | > 100 µM | > 100 µM | > 100 µM |  |  |  |  |  | 
7 | Cc1[nH]nc(N)c1C(N)=O | > 100 µM | > 100 µM | > 100 µM | 56.1 µM |  | > 100 µM |  | > 100 µM | > 100 µM | > 100 µM |  | > 100 µM |  | > 100 µM |  |  |  |  |  | 
8 | COc1cccc(/C=N/[N-]C(N)=O)c1[O-].[Ni+2].[OH3+].c1ccc(-c2ccccn2)nc1 | > 100 µM |  | > 100 µM | > 100 µM |  | > 100 µM |  | > 100 µM | > 100 µM | > 100 µM |  | > 100 µM | > 100 µM | > 100 µM |  |  |  | 66.9 µM |  | 
9 | CCOC(=O)c1c(Cl)nc2ccccc2c1N=[N+]=[N-] | 31.4 µM | 99.8 µM | 30.7 µM | > 100 µM | 44.2 µM | > 100 µM | 30.7 µM |  | 37.7 µM | > 100 µM | 68.5 µM | 53.4 µM | 43 µM | > 100 µM |  |  |  |  |  | 
10 | S=C1CC(c2ccccc2)Sc2ccccc2N1 (configuration not stated) | > 100 µM | > 100 µM | > 100 µM | 75.8 µM | > 100 µM | > 100 µM | > 100 µM | > 100 µM |  | > 100 µM | > 100 µM | > 100 µM | > 100 µM | > 100 µM |  |  |  |  |  | 
11 | COc1cc(OC)c(/C=C\c2cc(/C=C/c3c(OC)cc(OC)cc3OC)c3ccccc3[n+]2C)c(OC)c1 | 7.58 µM | > 49 µM | 9.8 µM | 10.9 µM | 8.19 µM | 5.62 µM | > 24.7 µM | 5.34 µM | 5.93 µM |  | 11.5 µM | 12.4 µM | > 28.3 µM | 5.48 µM |  |  |  |  |  | 
12 | C/C=C/C1=CC(=O)C(O)C1O (configuration not stated) | 15.5 µM |  | 64 µM | 44 µM |  | 57.5 µM |  | 79.9 µM | 55.9 µM | 102 µM |  | 97.4 µM | 96 µM | 109 µM |  |  |  |  |  | 
13 | NC(=O)CCC(N=C(N)c1csc(C2OC(CO)C(O)C2O)n1)C(=O)O (configuration not stated) | > 100 µM | > 100 µM | > 100 µM | > 100 µM |  | > 100 µM |  | > 100 µM | > 100 µM | > 100 µM |  | > 100 µM |  | > 100 µM |  |  |  |  |  | 
14 | O=C(N/N=C/c1cc(Cl)cc(Cl)c1[O-])c1ccccc1O.O=C(N/N=C/c1cc(Cl)cc(Cl)c1[O-])c1ccccc1O.[Zn+2] | 0.764 µM | 18.5 µM |  | 11.6 µM |  | 0.715 µM |  | 3.38 µM | 5.75 µM |  |  | 11.8 µM | 14.5 µM | 18 µM |  | 0.0115 µM |  |  | 0.337 µM | 0.852 µM
